Measurements published in patent US20030208067A1, “Inhibitors of protein kinase for the treatment of disease” (priority 2001, published 2003).
pIC50: −log10 of the molar value.

Assays:
CDK5 complexed with p25 = CDK5 complexed with p25 (Homo sapiens, UniProt Q00535); assay: Cyclin dependent kinase activity assay (33P peptide phosphorylation); format: biochemical; conditions: 0.1 mM ATP, read-out: CDK 5 Activity*
Method: (§1) The assay of cyclin dependent kinase activity was determined by monitoring the phosphorylation of a synthetic peptide, PKTPKKAKKLRRR. The assay mixture contained 0.1 mM cold ATP, ^33P-γ-ATP (2000-4000 cpm/μL), 0.1 mM peptide, 1 mM DDt, and 10 mM MgCl2 in 100 mM HEPES buffer pH 7.4. The assay mixture, along with inhibitor and CDK enzyme (0.3-0.4 U/mL; either CDK5 complexed with p25, CDK2 complexed with complexed with cyclin A), was mixed together in a microtiter plate in a final volume of 40 μL, sealed and incubated for 2 hours at 30° C. Following incubation, a 15 μL aliquot was added to a Whatman P81 filtration plate containing 100 μL 0.5% phosphoric acid. This mixture was allowed to stand for 5 minutes prior to filtration on a vacuum manifold. The filter plate was washed with 5 successive additions of 300 μL 0.5% phosphoric acid. The filtration plate was air dried for 10 minutes before sealing the bottom. After addition of scintillation fluid to the sealed plate, phosphorylated peptide was quantified in a scintillation counter.

KDR = KDR (Homo sapiens, UniProt P35968); assay: Enzyme assay for EGFR2 (KDR); format: biochemical; conditions: 50 nM KDR; 500 μM ATP
Sequence of KDR (P35968 20-1356, species assumed): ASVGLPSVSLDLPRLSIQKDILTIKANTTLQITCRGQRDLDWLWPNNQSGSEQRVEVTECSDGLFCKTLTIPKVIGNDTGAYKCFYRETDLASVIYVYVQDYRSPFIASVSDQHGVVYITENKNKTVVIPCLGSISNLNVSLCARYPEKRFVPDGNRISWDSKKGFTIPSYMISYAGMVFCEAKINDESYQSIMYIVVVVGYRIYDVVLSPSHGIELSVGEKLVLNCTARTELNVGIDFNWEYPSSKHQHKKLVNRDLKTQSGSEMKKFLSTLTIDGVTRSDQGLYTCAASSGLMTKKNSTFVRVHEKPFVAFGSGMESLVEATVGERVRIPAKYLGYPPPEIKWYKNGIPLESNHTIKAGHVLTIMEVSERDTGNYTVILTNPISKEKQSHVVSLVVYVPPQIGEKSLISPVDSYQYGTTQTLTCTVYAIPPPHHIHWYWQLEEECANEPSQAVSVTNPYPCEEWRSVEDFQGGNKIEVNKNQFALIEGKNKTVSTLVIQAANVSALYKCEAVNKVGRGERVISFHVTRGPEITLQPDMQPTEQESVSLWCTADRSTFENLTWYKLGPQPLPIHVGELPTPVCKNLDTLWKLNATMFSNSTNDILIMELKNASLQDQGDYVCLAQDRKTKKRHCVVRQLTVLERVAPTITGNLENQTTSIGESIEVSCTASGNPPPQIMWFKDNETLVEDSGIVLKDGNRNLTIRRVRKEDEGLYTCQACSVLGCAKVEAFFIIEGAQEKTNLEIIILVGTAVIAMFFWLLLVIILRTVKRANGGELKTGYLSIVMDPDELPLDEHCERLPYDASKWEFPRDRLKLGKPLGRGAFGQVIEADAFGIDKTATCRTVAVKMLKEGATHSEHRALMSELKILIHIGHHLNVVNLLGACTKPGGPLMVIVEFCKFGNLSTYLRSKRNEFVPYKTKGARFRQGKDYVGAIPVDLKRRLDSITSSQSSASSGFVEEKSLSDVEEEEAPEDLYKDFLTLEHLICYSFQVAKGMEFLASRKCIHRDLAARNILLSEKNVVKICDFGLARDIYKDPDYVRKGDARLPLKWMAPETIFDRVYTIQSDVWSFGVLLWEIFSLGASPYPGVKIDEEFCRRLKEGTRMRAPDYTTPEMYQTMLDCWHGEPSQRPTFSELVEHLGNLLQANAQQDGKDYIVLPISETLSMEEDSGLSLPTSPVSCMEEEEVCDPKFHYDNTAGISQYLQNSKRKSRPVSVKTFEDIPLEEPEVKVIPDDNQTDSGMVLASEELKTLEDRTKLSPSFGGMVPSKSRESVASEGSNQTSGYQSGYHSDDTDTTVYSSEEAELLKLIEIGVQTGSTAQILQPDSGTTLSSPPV
Method: Enzyme assays for IC50 determinations were performed in 96-well titer plates, in a total reaction volume of 50 μL. Each reaction contained 1.5 μL of appropriate dilutions of inhibitor, 50 mM Hepes, pH 7.4, 1 mM DTT, 10 mM magnesium chloride, 2 mM phospho-poly(E4Y) (Sigma Chemical Company), 500 μM unlabeled ATP, 0.0025 μM [^33P]ATP (Amersham Pharmacia Biotech), and 50 nM KDR. All components except KDR were added to the wells, and the reaction was started by the addition of the enzyme. The reactions were mixed and incubated at room temperature for 1 hr, after which the reactions were quenched by the addition of 50 μL of 8% phosphoric acid. At this point, 90 μL aliquots of the samples were applied to positively charged DEAE 96-well filter plates (Millipore Corporation MADENOB10). The plates were incubated for 30 min at room temperature. The samples were aspirated and the wells were washed 3 times with 200 μL of 0.5% phosphoric acid. To each well, 50 μL of scintillation cocktail was added and counted for 60 sec in a TopCount microplate scintillation counter (Packard Instrument Company). The concentration of a compound that inhibited the activity of KDR by 50% (IC50) was determined based its inhibition curve.

panel of protein kinases = assay: Specificity studies, summary in words; format: biochemical; conditions: against a panel of protein kinases
Method: The assays of kinases were determined by monitoring the phosphorylation of appropriate substrates. The assay mixture contained 0.1 mM cold ATP ^33P-γ-ATP (2000-4000 cpm/μL), 0.1 mM substrate, 1 mM DTT, and 10 mM MgCl2 in 100 mM HEPES buffer pH 7.4. The assay mixture, along with inhibitor and kinase enzyme (0.3-0.4 U/mL), was mixed together in a microtiter 96-well plate in a final volume of 40 μL, sealed and incbated for 1 hour at 30° C. Following incubation, a 15 μL aliquot was added to a Whatman P81 filtration plate containing 100 μL 0.5% phosphoric acid. This mixture was allowed to stand for 5 minutes prior to filtration on a vacuum manifold. The filter plate was washed with 5 successive additions of 300 μL 0.5% phosporic acid. The filtration plate was air dried for 10 minutes before sealing the bottom. After addition of scintillation fluid to the sealed plate, phosphorylated substrate was quantified in a scintillation counter.

A549/ATCC = assay: In vitro tumor cell efficacy test (SRB cell viability); format: cell-based; conditions: Homo sapiens, Non-Small Cell Lung Cancer, 72 hours
[1] = biological target: CDK2 complexed with cyclin A (Homo sapiens, UniProt P24941); assay: Cyclin dependent kinase activity assay (33P peptide phosphorylation); format: biochemical; conditions: 0.1 mM ATP, read-out: CDK 2 Activity*
Method: as §1

Sequence of CDK5 complexed with p25 (Q00535 whole entry): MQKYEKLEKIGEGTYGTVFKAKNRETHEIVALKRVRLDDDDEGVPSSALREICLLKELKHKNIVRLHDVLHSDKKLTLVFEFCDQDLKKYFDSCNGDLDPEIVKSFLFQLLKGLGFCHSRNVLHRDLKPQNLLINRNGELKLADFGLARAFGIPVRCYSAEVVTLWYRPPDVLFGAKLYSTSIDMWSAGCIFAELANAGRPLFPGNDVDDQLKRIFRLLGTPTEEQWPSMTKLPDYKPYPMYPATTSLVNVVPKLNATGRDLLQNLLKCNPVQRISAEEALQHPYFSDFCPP
Sequence of CDK5 complexed with p25 (Q15078 99-307 partner limits assumed): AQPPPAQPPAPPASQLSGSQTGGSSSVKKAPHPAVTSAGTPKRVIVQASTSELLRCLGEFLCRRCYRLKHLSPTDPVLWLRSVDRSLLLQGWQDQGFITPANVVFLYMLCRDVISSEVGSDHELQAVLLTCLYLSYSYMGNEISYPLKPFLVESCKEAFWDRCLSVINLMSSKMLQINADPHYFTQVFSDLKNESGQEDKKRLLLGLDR

pIC50 (CDK5 complexed with p25) | pIC50 (KDR) | pIC50 [1] | SMILES | specificity for CDK5 and CDK2 (panel of protein kinases) | LC50 (A549/ATCC)
> 6.30 | 4.70 to 6.00 |  | Nc1nc(-c2cc(-c3ccc(O)cc3)ccc2O)cc(N2CCCC2CO)n1 (stereo in doubt) [Example 79, 3-[2-Amino-6-(2R-hydroxymethyl-pyrrolidin-1-yl)-pyrimidin-4-yl]-biphenyl-4,4′-diol] |  | 
 |  |  | Nc1nccc(-c2cc(-c3ccc(O)cc3)ccc2O)n1 [3-(2-Amino-pyrimidin-4-yl)-biphenyl-4,4′-diol] | highly specific | > 100000 nM
5.70 to 6.30 |  | 5.30 to 5.70 | NC(=S)N/N=C/c1cc(-c2ccc(CO)cc2)ccc1O [Example 10, 5-(4-Hydroxymethylphenyl)salicylaldehyde Thiosemicarbazone] |  | 
< 5.30 |  | 5.70 to 6.30 | NC(=O)/C=C/c1ccc(O)c(/C=N/NC(N)=S)c1 [Example 39, 3-Formyl-4-hydroxycinnamide, Thiosemicarbazone] |  | 
